Laboratory results: patent US20100112012A1, “MODULATION OF IMMUNE RESPONSES” (CLEVELAND CLINIC FOUNDATION, priority 2005, published 2010)

Key:
ovalbumin-specific IgG = assay: Ovalbumin immunization, ovalbumin-specific IgG titers by ELISA; assay type: in vivo, BALB/c mice; conditions: ovalbumin 100 ug i.p. days 0 and 7; quinacrine 80 mg/kg days 1, 2, 8 and 9; serum day 14
NF-κB = assay: Electromobility shift assay and immunofluorescent staining of nuclear NF-κB; assay type: cell-based, human; conditions: TNF 10 ng/ml, 10 μM
Description: (§1) All washings were done with blocking solution.

histone H2A.X = assay: Immunofluorescent detection of phosphorylated histone H2A.X; assay type: cell-based, human; conditions: HT1080 cells, 10 μM
Description: as §1

CCN(CC)CCCC(C)Nc1c2ccc(Cl)cc2nc2ccc(OC)cc12 (stereo not drawn) [QC, quinacrine]
increase of antigen-specific titers of IgG (ovalbumin-specific IgG): 4 fold
nuclear accumulation and retention of NF-κB (p65) complexes (NF-κB): greatly prolonged the time of its presence in nuclei
phosphorylation of histone H2A.X (histone H2A.X): Neither 9AA nor QC induced phosphorylation of histone H2A.X
